In patent publication US9034846B2, “Use of cyclodextrin for treatment and prevention of bronchial inflammatory diseases” (UNIVERSITE DE LIEGE, priority 2004, dated 2015):

How the values were obtained:
[1] = system: OVA exposed mice; assay: Bronchoalveolar lavage differential cell counts, OVA mouse model of asthma; type: in vivo; settings: for Eosinophils (%) in BAL / Epithelial cells (%) in BAL / Lymphocytes (%) in BAL / Macrophages (%) in BAL / Neutrophils (%) in BAL / Total cells (10^4/ml) in BAL: Table 2
Protocol: (§1) In order to study modulation of airway inflammation, males BALB/c mice of 6 to 8 weeks old were sensitized by intraperitoneal injection of 10 μg ovalbumin (OVA) (Sigma Aldrich, Schnelldorf, Germany) emulsified in aluminum hydroxyde (AlumInject; Perbio, Erembodegem, Belgium) on days 1 and 8. Mice were subsequently exposed to allergens by daily inhalation of an aerosol of OVA 1%, for 30 minutes, generated by ultrasonic nebulizer (Devilbiss 2000), from day 21 to 27. Mice were subjected to inhalation of β-CD, HP-β-CD HP 1, 7.5, 50 mM and HP-β-CD 50 mM 30 minutes before OVA inhalation. Mice were sacrificed performed on day 28 as previously reported by Cataldo and al in Am. J. Pathol 2002; 161(2):491-498.
Immediately after assessment of airway responsiveness, and 24 hours after the last allergen exposure.
(§2) Mices were sacrificed and a bronchoalveolar lavage was performed using 4×1 ml PBS-EDTA 0.05 mM (Calbiochem, Darmstadt, Germany) as previously described by Cataldo D D, Tournoy K G, Vermaelen K et al. in Am J Pathol 2002; 161(2):491-498. Cells were recovered by gentle manual aspiration. After centrifugation of bronchoalveolar fluid (BALF) (1200 rpm for 10 minutes, at 4° C.), the supernatant was frozen at −80° C. for protein assessment and the cell pellet was resuspended in 1 ml PBS-EDTA 0.05 mM. The differential cell counts were performed on cytocentrifuged preparations (Cytospin) after staining with Diff-Quick (Dade, Belgium).

[2] = system: mice; assay: BAL differential cell counts after exposure to inhaled CRYSMEB (Table 1); type: in vivo, mouse
Protocol: as §2, with “Belgium). […]” for “Belgium).”

[3] = system: OVA exposed mice; assay: Bronchial responsiveness to methacholine (Penh, barometric plethysmograph); type: in vivo, mouse; settings: FIG. 10
Protocol: as §1, with “Mice were subjected to inhalation of β-CD, HP-β-CD HP 1, 7.5, 50 mM and HP-β-CD 50 mM 30 minutes before OVA inhalation.” left out
Twenty-four hours after the last allergen exposure, the bronchial hyper responsiveness was determined by measuring the Penh (Enhanced Pause) using a barometric plethysmograph (Emka technologies, Paris) as proposed by Hamelmann, E., et al., Am. J. Respir. Crit. Care Med. 156 (1997) 766-775). The Penh was measured at baseline and […] after the inhalation of increasing doses (25, 50, 75 and 100 mM) of methacholine (Mch).

[4] = system: OVA exposed mice; assay: Peribronchial inflammation score by histology, OVA mouse model; type: in vivo
Protocol: as §1, with “Mice were subjected to inhalation of β-CD, HP-β-CD HP 1, 7.5, 50 mM and HP-β-CD 50 mM 30 minutes before OVA inhalation.” left out
(§3) After BAL, the thorax was opened and the left main bronchus was clamped. The left lung was excised and frozen immediately at −80° C. for protein and mRNA extraction. The right lung was infused with 4 ml paraformaldehyde 4%, embedded in paraffin and used for histology. Sections of 5 μm thickness were cut off from paraffin and were stained with haematoxylin-eosin. The extent of peribronchial inflammation was estimated by a score calculated by quantification of peribronchial inflammatory cells, as previously described by Cataldo D D, Tournoy K G, Vermaelen K et al. in Am J Pathol 2002; 161(2):491-498. A value of 0 was adjudged when no inflammation was detectable, a value of 1 when there was occasionally inflammatory cells, a value of 2 when most bronchi were surrounded by a thin layer (1 to 5 cells) of inflammatory cells and a value of 3 when most bronchi were surrounded by a thick layer (>5 cells) of inflammatory cells. Since 5-7 randomly selected tissue sections per mouse were scored, inflammation scores are expressed as a mean value and can be compared between groups. After Congo Red staining, the eosinophilic infiltration in the airway walls was quantified by manual count and reported to the perimeter of epithelial basement membrane defining an eosinophilic inflammatory score.

[5] = system: IL-13; assay: IL-13 ELISA in BAL and lung protein extracts, OVA mouse model; type: in vivo
Protocol: as §1
The left lung was crushed using a Mikro-Dismembrator (Braun Biotech International, Gmbh Melsungen, Germany). For proteins extraction, the crushed lung tissue was incubated overnight at 4° C. in a solution containing 2M urea, 1M NaCl and 50 mM Tris (pH 7.5) and subsequently centrifuged 15 minutes at 16.000×g. The supernatant was stored at −80° C.
Eotaxin and IL-13 levels were assessed using commercial ELISAs (R&D systems, Abingdon, UK). Eotaxin was measured by incubation in a wheel coated with a primary antibody specifically dedicated to the recognition of the protein and after rinsing, a second antibody against eotaxin, coupled with horse radish peroxydase was used to quantify the amounts of eotaxin in the solution
IL-13 was measured by incubation in a wheel coated with a primary antibody specifically dedicated to the recognition of the protein and after rinsing, a second antibody against IL-13, coupled with horse radish peroxydase was used to quantify the amounts of […] in the solution.

[6] = system: OVA exposed mice; assay: Peribronchial eosinophil infiltration (Congo Red), OVA mouse model; type: in vivo; settings: after allergen exposure; FIG. 3
Protocol: as §1, §3

[7] = reference therapy, concentration not given
[8] = exposure to aerosolized CRYSMEB 30 min/day during 7 days

C[C@@H]1C[C@H]2[C@@H]3C[C@H](F)C4=CC(=O)C=C[C@]4(C)[C@@]3(F)[C@@H](O)C[C@]2(C)[C@@]1(O)C(=O)SCF [Fluticasone, reference compound]
Eosinophils (%) in BAL [1, 7]: 32.92 ± 7.306 %
Epithelial cells (%) in BAL [1, 7]: 22.85 ± 5.343%
Lymphocytes (%) in BAL [1, 7]: 1.68 ± 0.7115%
Macrophages (%) in BAL [1, 7]: 40.52 ± 3.122%
Neutrophils (%) in BAL [1, 7]: 1.85 ± 1.093%
Total cells (10^4/ml) in BAL [1, 7]: 75.92 ± 11.922 10^4/ml

2-O-methyl βcyclodextrin [CRYSMEB]
Bronchoalveolar lavage eosinophilia ([1]; Example 2, treated groups vs placebo): significantly decreased
Eosinophils (%) in BAL ([1]; 10 mM): 8.84 ± 2.946 %
Epithelial cells (%) in BAL ([1]; 10 mM): 36.83 ± 5.644%
Lymphocytes (%) in BAL ([1]; 10 mM): 0.214 ± 0.1079%
Macrophages (%) in BAL ([1]; 10 mM): 52.714 ± 6.49%
Neutrophils (%) in BAL ([1]; 10 mM): 1.26 ± 0.4587%
Total cells (10^4/ml) in BAL ([1]; 10 mM): 131.93 ± 33.637 10^4/ml
cellular composition of the bronchoalveolar lavage [2, 8]: not significantly altered
eosinophil and neutrophil counts in BAL [2, 8]: no differences
Eosinophils (%) in BAL ([2]; inhaled 20 mM): 0.0375 ± 0.0375%
Epithelial cells (%) in BAL ([2]; inhaled 20 mM): 29.9 ± 5.909%
Lymphocytes (%) in BAL ([2]; inhaled 20 mM): 0.425 ± 0.1485%
Macrophages (%) in BAL ([2]; inhaled 20 mM): 69.5 ± 5.956%
Neutrophils (%) in BAL ([2]; inhaled 20 mM): 0.0375 ± 0.1061%
Eosinophils (%) in BAL ([2]; inhaled 50 mM): 0.1125 ± 0.0789%
Epithelial cells (%) in BAL ([2]; inhaled 50 mM): 36.1375 ± 4.52%
Lymphocytes (%) in BAL ([2]; inhaled 50 mM): 0.275 ± 0.1161%
Macrophages (%) in BAL ([2]; inhaled 50 mM): 63.1625 ± 4.695%
Neutrophils (%) in BAL ([2]; inhaled 50 mM): 0.2 ± 0.3505%
Eosinophils (%) in BAL ([2]; inhaled 75 mM): 0.0375 ± 0.0375%
Epithelial cells (%) in BAL ([2]; inhaled 75 mM): 30.8875 ± 1.349%
Lymphocytes (%) in BAL ([2]; inhaled 75 mM): 0.075 ± 0.0491%
Macrophages (%) in BAL ([2]; inhaled 75 mM): 68.9 ± 1.334%
Neutrophils (%) in BAL ([2]; inhaled 75 mM): 0.0375 ± 0.1061%
methacholine-induced Penh increase ([3]; 10 mM inhalation): reduced
responsiveness to methacholine ([3]; after allergen exposure, extent comparable to fluticasone): significantly reduced
peribronchial inflammation score ([4]; 20 mM, compared to placebo, FIG. 9A): decreased inflammation score
levels of IL-13 in whole lung protein extracts ([5]; FIG. 11): significantly decreased

OC[C@H]1O[C@@H]2O[C@H]3[C@H](O)[C@@H](O)[C@@H](O[C@H]4[C@H](O)[C@@H](O)[C@@H](O[C@H]5[C@H](O)[C@@H](O)[C@@H](O[C@H]6[C@H](O)[C@@H](O)[C@@H](O[C@H]7[C@H](O)[C@@H](O)[C@@H](O[C@H]8[C@H](O)[C@@H](O)[C@@H](O[C@H]1[C@H](O)[C@H]2O)O[C@@H]8CO)O[C@@H]7CO)O[C@@H]6CO)O[C@@H]5CO)O[C@@H]4CO)O[C@@H]3CO [β-CD, β-cyclodextrin]
number of eosinophils in BAL ([1]; after allergen exposure, concentration not given, FIG. 1): tendency to increase
peribronchial eosinophil infiltration [6]: decrease reached statistical significance
peribronchial inflammation score ([4]; concentration not given, FIG. 2): did not reduce
IL-13 levels in BAL ([5]; FIG. 7b): increased
